Measurements reported in patent publication US20230285570A1, “THERAPEUTICALLY USEFUL CURE-PRO MOLECULES FOR E3 LIGASE MEDIATED DEGRADATION OF PROTEINS, AND METHODS OF MAKING AND USING THEM” (CORNELL UNIVERSITY, priority 2020, published 2023).
Entries after “also recorded” stand apart in the source; their conditions may differ.

Assays:
SLC19A1 = test: RT-PCR of c-MYC downstream target gene SLC19A1 in HeLa cells; type: cell-based, Human; conditions: single compound, HeLa, 10 μM, 24 h
Description: The suppression of the expression of the downstream c-MYC target, SLC19A1, was measured by RT-PCR using Power SYBR® Green Cells-to-Ct™ Kit (Life Technologies). Adherent cells were plated on 96 well plates at 5,000 cells per well were treated for 24 h with monomer compounds and compounds capable of reversible interactions (1 nM-100 μM). Cells were subsequently washed in ice-cold PBS processed according to the manufacturer's instructions. Quantitative real-time PCR was performed using a ViiA™ 7 Real-time PCR System (Applied Biosystems, Foster City, Calif., USA). GAPDH and ACTB served as internal controls.
HeLa cells (1×10^4) were treated for 24 hours in 96 well plates with the compounds solubilized in DMSO. Compounds were added at 10 μM each and RNA expression measured by the Cells-to Ct method described above (Thermofisher).

BRD4 [1] = target: T1, BRD4 (Homo sapiens, UniProt O60885); test: CURE-PRO-mediated BRD4 degradation in HeLa cells, WES capillary electrophoresis (ProteinSimple); type: cell-based; design: endogenous in cells; host or cells: HeLa
Description: All cell lines were purchased from ATCC or DSMZ and grown at 37° C. with 5% CO2. Human HeLa cells were cultured in complete growth medium (Dulbecco's modified Eagle's medium (DMEM) supplemented with 10% FBS); MCF7 cells were cultured in complete growth medium (Dulbecco's modified Eagle's medium (DMEM) supplemented with 10% FBS and 0.01 mg/ml human recombinant insulin (Sigma Aldrich); Namalwa and Ramos cells were cultured in complete growth medium (RPMI 1640 medium supplemented with 10% FBS); HCT116 and HT29 cells were cultured in complete growth medium (McCoy's 5a Medium supplemented with 10% FBS). For cellular degradation of BRD4 studies cells were seeded in a 12-well plate at 70-80% confluency, allowed to attach overnight, and incubated with the indicated compounds for the indicated time. When indicated, a 15-minute pretreatment with 10 μM pomalidomide, 10 μM VHL298, 10 μM Nutlin3a, 1 μM MG-132 or 1 μM Carfilzomib was performed before the addition of CURE-PROs. For washout studies, after CURE-PRO treatment, media was aspirated and incubated with complete medium for the indicated time before lysis.
(§1) WES Simple analysis was performed on WES system (ProteinSimple-Biotechne) according to the manufacturer's instructions. Total protein concentrations of cell lysates were determined by the Pierce BCA kit (Thermo Fisher). 3 μL of 0.3 μg/μL of the protein lysate was loaded onto a 12- to 230-kDa WES assay plate (ProteinSimple) where 300 nL sample was withdrawn through a capillary, subjected to electrophoretic separation of proteins by size, and followed by the simultaneous, HRP-based detection of proteins using the Anti-Rabbit Detection Module (Proteinsimple: #DM-001). The electropherograms were checked then the automatic peak detection was manually corrected if it was required.
HeLa cells (2.5×10^6) were treated for 4-24 hours with the compounds solubilized in DMSO. After 4 hours, indicated points were washed and cells were left in full growth media. Compounds were added at 10 μM each. Standardized protein samples were electrophoresed and imaged as described in the WES ProteinSimple section above. FIGS. 44 and 45 depict the time-dependence of CURE-PRO-mediated BRD4 degradation with the BRD-E52 ligand (FIG. 44) and BRD-E72 ligand (FIG. 45), both JQ1 derivatives comprising of boronic acid linkers, and the CRBN binding ligands (8046, 8047, and 8066), pomalidomide derivatives comprising diol linkers.
HeLa cells (2.5×10^6) were treated for 24 hours with the compounds solubilized in DMSO. Compounds were added at 100 nM-10 μM each. Standardized protein samples were electrophoresed and imaged as described in the WES ProteinSimple section above. FIG. 46 depicts the concentration-dependence of CURE-PRO-mediated BRD4 degradation and the requirement for monomer dimerization.

BRD4 [2] = target: T1, BRD4; test: Summary of BRD4 degradation by CURE-PRO pairs, estimated from Western Blot or WES; type: cell-based; design: endogenous in cells
How it was run: (§2)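 Degradation read-out from immunoblot with ECL, or WES capillary electrophoresis with HRP detection, of RIPA lysates. Cells (Namalwa, Ramos, HeLa, MCF7, HT29 or HCT116) were exposed to DMSO-solubilized compounds for 24 h; a check mark marks 30% to 70% or higher degradation.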

BRD4 [3] = target: T1, BRD4; test: CURE-PRO-mediated BRD4 degradation in HeLa cells, Western blot; type: cell-based; design: endogenous in cells; host or cells: HeLa; conditions: 24 h
How it was run: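 HeLa cells (2.5×10^6) treated 24 h with DMSO-solubilized compounds, degrader pairs combined 1:1, at 1 nM-1 μM, 1-10 μM, 10 μM or 10 and 100 μM each depending on series. RIPA lysates (10-20 μg protein) run on SDS-PAGE and immunoblotted for BRD4 with ECL detection.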

caspase 3/7 = test: Caspase-Glo 3/7 assay, Namalwa cells; type: cell-based; conditions: 1:1 with CRBN ligand 8047, Namalwa, 24 h
Description: Caspase-glo® assay (Promega) was conducted following the manufacturer's recommendations. Cells were seeded at a density of 5000 cells/well in a white 96 well plates (Corning, #3917) in a total volume of 100 μl with respective monomers, combinations of BRD ligands together with E3 ligase ligands or vehicle control treatment. After a 24 h incubation, 100 μl of the […] substrate was added per well and luminescence was read on a Spectramax M5 (Molecular Devices).
Namalwa cells (5×10^4) were treated for 24 hours with the compounds solubilized in DMSO. FIG. 57 is a bar graph depiction of fold increase of apoptosis assessed via caspase 3/7 activity using the Caspase-Glo assay (Promega) described above.
Molm-13 (FIG. 76A) or Namalwa (FIG. 76B) cells (5×10^4) were treated for 24 hours with the compounds solubilized in DMSO in white 96 well plates (10 nM-10 μM solubilized in DMSO). FIG. 76 is a bar graph depiction of fold increase of apoptosis assessed via caspase 3/7 activity using the Caspase-Glo assay (Promega) described above.

c-MYC [4] = target: T2, c-MYC (Homo sapiens, UniProt P01106); test: Summary of C-MYC degradation by CURE-PRO pairs, estimated from Western Blot or WES; type: cell-based; design: endogenous in cells; host or cells: HT29
How it was run: as §2

c-MYC [5] = target: T2, c-MYC; test: CURE-PRO-mediated c-MYC degradation in HCT1116 cells, Western blot or WES; type: cell-based; design: endogenous in cells; host or cells: HT29
Description: (§3) Namalwa, Ramosm HeLa, MCF7, or HT29 HCT116 cells (2.5-3×10^6) were treated for 24 hours with the indicated compounds solubilized in DMSO. The cells were washed in ice-cold PBS and were then lysed in RIPA lysis buffer (150 mM NaCl, 5 mM EDTA, 1% NP-40, 0.5% sodium deoxycholate, 0.1% SDS, 50 mM Tris, pH 8.0.) with Roche protease inhibitor complete cocktail and phosphatase inhibitors (10 mM sodium fluoride, 10 mM sodium pyrophosphate, 1 mM sodium orthovanadate and 20 mM β-glycerophosphate). The total protein concentrations were determined by Bradford Protein Assay (Pierce) and 10-20 μg of protein was loaded onto 4-15% Tris-Glycine gradient gels (Biorad). After standard gel electrophoresis, the separated proteins were transferred to PVDF membrane by wet transfer. The immunoblots were then blocked for 1 hour in 5% skim milk in TBST or 5% BSA in TBST, according to manufacturer's instructions, before an overnight incubation at 4° C. with indicated antibodies and membranes. Membranes were then incubated with the appropriate horseradish peroxidase-conjugated secondary antibodies (1:5,000 dilution) for 1 h at room temperature and the bands were visualized using the Clarity Max Western ECL Substrate (Biorad) and the ChemiDoc Imaging System (Biorad). Signal was detected with ECL Western Blotting Substrate (Pierce) and X-ray film processed with a Konica SRX-101 X-ray film processor or captured by Bio-Rad's Chemidoc Imaging system.
as §1
HCT1116 cells (2.5×10^6) were treated for 24 h with the compounds solubilized in DMSO. Compounds were added at 10 nM-10 μM each. Standardized protein samples were electrophoresed and imaged as described in the immunoblotting or WES (Proteinsimple) sections above. c-MYC monomers, MYC-N20 (FIG. 100, a 10074-G5 derivative comprising diol linkers), and MYC-N10 (FIG. 101), MYC-N6 (FIG. 102), and MYC-N9 (FIG. 103) (10058-F4 derivatives comprising diol linkers), and MDM2 ligands, 8310 and 8312 (Nutlin 3a derivatives comprising boronic acid linkers) were combined in a 1:1 ratio.
HCT1116 cells (2.5×10^6) were treated for 24 h with the compounds solubilized in DMSO. Compounds were added at 1 μM-10 μM each.

Aiolos and Ikaros [6] = test: Aiolos and Ikaros expression in Ramos cells, Western blot; type: cell-based; conditions: monomer alone, 100 nM-10 μM, 24 h
Description: as §3
(§4) Namalwa (FIG. 78) or Ramos (FIG. 79) cells (5×10^6) were treated for 24 h with the compounds solubilized in DMSO. Compounds were added at 100 nM-10 μM each. Standardized protein samples were electrophoresed and imaged as described in the immunoblotting section above. FIGS. 78 and 79 depict the effects of the E3 ubiquitin ligase CURE-PRO monomer ligands (100 nM-10 μM, 24 h) targeting Cereblon on the expression of Aiolos and Ikaros, two downstream proteins that are known to be ubiquitinated and degraded after IMiDs bind to CRBN.

Aiolos and Ikaros [7] = test: Aiolos and Ikaros expression in Namalwa cells, Western blot; type: cell-based; conditions: monomer alone, 100 nM-10 μM, 24 h
Description: as §3, §4

T2 sequence (P01106 whole entry): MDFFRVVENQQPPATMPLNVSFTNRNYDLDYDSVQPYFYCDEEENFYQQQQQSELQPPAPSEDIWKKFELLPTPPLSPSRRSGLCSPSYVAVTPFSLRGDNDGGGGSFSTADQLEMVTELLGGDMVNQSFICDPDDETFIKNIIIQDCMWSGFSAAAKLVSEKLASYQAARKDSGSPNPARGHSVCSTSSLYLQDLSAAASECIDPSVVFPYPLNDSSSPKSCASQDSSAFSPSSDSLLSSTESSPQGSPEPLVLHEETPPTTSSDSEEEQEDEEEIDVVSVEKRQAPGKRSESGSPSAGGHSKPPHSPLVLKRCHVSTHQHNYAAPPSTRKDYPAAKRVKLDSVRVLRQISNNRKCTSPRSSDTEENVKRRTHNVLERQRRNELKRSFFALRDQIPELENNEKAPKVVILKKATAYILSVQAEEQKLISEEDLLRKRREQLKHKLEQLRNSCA

Cc1sc2c(c1C)C(c1ccc(Cl)cc1)=N[C@@H](CC(=O)Nc1ccc(OCCOCCOCCOCCNc3cccc4c3C(=O)N(C3CCC(=O)NC3=O)C4=O)cc1)c1nnc(C)n1-2 (stereo partly shown) [ARV-825, reference compound]
suppression of SLC19A1 expression (SLC19A1): Complete suppression; also recorded: completely suppressed

CCNC(=O)C[C@@H]1N=C(c2ccc(Sc3cccc(B(O)O)c3)cc2)c2cc(OC)ccc2-n2c(C)nnc21 [BRD-E52, (3-((4-((4S)-4-(2-(ethylamino)-2-oxoethyl)-8-methoxy-1-methyl-4H-benzo[f][1,2,4]triazolo[4,3-a][1,4]diazepin-6-yl)phenyl)thio)phenyl)boronic acid]
sustained BRD4 degradation after drugs are washed out (BRD4 [1]; co-dosed with 8047, 10 μM each, washed after 4 h): up to 8 h
BRD4 degradation, time course (BRD4 [1]; co-dosed with CRBN ligand 8047, HeLa, 10 μM each, 4-24 h): marked BRD4 degradation after 4 h
concentration-dependent BRD4 degradation (BRD4 [1]; co-dosed with CRBN ligand 8047, HeLa, 24 h, 100 nM-10 μM each): marked BRD4 degradation
concentration from which BRD4 protein expression decreases (BRD4 [1]; with CRBN ligand 8047, HeLa, 24 h, 100 nM-10 μM each): ≥ 300 nM
Degradation of BRD4, combination with CRBN ligand 8047 (BRD4 [2]; Table 1, aryl-boronic acid BRD4 ligand + 8047): √ (A black check mark indicates efficacy of 30% to 70% or higher protein degradation)
Degradation of BRD4, combination with CRBN ligand 8066 (BRD4 [2]; Table 1, aryl-boronic acid BRD4 ligand + 8066): √ (A black check mark indicates efficacy of 30% to 70% or higher protein degradation)
BRD4 degradation after pomalidomide preincubation (BRD4 [3]; 1:1 with 8047, 10 μM, pomalidomide preincubated 15 min at equimolar concentration): inhibition of CURE-PRO-mediated BRD4 degradation
BRD4 degradation (BRD4 [3]; BRD ligand with pomalidomide (no 8047), HeLa, 10 μM): failed to induce BRD4 degradation
BRD4 degradation (BRD4 [3]; co-treated 1:1 with CRBN ligand 8047, HeLa, 10 μM each): causes degradation of BRD4; also recorded: CURE-PRO-mediated degradation of BRD4
caspase 3/7 activation (caspase 3/7): demonstrates activation of caspase 3/7; also recorded: marked caspase activation

CCc1ccc(/C=C2\SC(=O)N(CCOCCNC(=O)c3cccc(B(O)O)c3)C2=O)cc1 [MYC-E4]
Degradation of C-MYC, combination with CRBN ligand 8047 (c-MYC [4]; Table 7, aryl-boronic acid MYC ligand + 8047): √ (A black check mark indicates efficacy of 30% to 70% or higher protein degradation)
Degradation of C-MYC, combination with MDM2 ligand 8314 (c-MYC [4]; Table 8, aryl-boronic acid MYC ligand + 8314): √ (A black check mark indicates efficacy of 30% to 70% or higher protein degradation)
c-MYC degradation (c-MYC [5]; 1:1 with MDM2 ligand 8313, HCT1116, 24 h, 1 μM-10 μM each): had no effect
c-MYC degradation (c-MYC [5]; 1:1 with MDM2 ligand 8314, HCT1116, 24 h, 1 μM-10 μM each): caused degradation of c-MYC protein at 10 μM; also recorded: Degradation was noted
c-MYC degradation (c-MYC [5]; monomer dosed alone, HCT1116, 24 h): No loss of c-MYC protein was noted

Nc1cccc2c1C(=O)N(C1CCC(=O)NC1=O)C2=O (stereo not shown) [Pomalidomide, pomalidomide, reference compound]
expression of Aiolos and Ikaros (Aiolos and Ikaros [6]): caused greater loss of Aiolos and Ikaros protein than the CURE-PRO derivatives at equimolar concentrations
expression of Aiolos and Ikaros (Aiolos and Ikaros [7]): caused greater loss of Aiolos and Ikaros protein than the CURE-PRO derivatives at equimolar concentrations
suppression of SLC19A1 expression (SLC19A1): no suppression
